Source: paper PMC7313537 (PLoS ONE, 2020)
Read-outs that look alike come from different tables or passages of the source.

Assays:
[1] = target: CAMK2D (Homo sapiens, UniProt Q13557); experiment: Enzyme selectivity panel; format: biochemical; conditions: 1 mM ATP
Procedure: (§2) The kinase assays were carried out at room temperature in HEPES 50 mM, pH 7.0, NaN3 0.02%, BSA 0.01%, Orthovanadate 0.1 mM, DTT 1 mM, MgCl2 10 mM in a final volume of 10 µL. Test compounds were transferred to the plate wells by ECHO liquid handler (Labcyte, San Jose, CA) with 0.5% dimethyl sulfoxide (DMSO) in the final assay. Peptide/kinase mixtures were diluted in the appropriate enzymatic buffer and 5µL of the mixture was added to a 384-well small volume black plate. Reactions were initiated by the addition of 5 µL ATP in reaction buffer, the final reaction mixture consisted of 500 nM peptide substrate, 1 mM ATP, and appropriate amount of specific kinase. […] The plates were then sealed and centrifuged at 1800 rpm for 2 minutes. […] Half maximal inhibitory concentration (IC50) determination was performed by fitting the curve of percent control activity versus the log of the compound concentration using the GraphPad Prism 6.0 software.

[2] = target: CHEK2 (Homo sapiens, UniProt O96017); experiment: Enzyme selectivity panel; format: biochemical; conditions: 1 mM ATP
Procedure: as §2

[3] = target: LCK (Homo sapiens, UniProt P06239); experiment: Enzyme selectivity panel; format: biochemical; conditions: 1 mM ATP
Chain of LCK (P06239 whole entry, species assumed): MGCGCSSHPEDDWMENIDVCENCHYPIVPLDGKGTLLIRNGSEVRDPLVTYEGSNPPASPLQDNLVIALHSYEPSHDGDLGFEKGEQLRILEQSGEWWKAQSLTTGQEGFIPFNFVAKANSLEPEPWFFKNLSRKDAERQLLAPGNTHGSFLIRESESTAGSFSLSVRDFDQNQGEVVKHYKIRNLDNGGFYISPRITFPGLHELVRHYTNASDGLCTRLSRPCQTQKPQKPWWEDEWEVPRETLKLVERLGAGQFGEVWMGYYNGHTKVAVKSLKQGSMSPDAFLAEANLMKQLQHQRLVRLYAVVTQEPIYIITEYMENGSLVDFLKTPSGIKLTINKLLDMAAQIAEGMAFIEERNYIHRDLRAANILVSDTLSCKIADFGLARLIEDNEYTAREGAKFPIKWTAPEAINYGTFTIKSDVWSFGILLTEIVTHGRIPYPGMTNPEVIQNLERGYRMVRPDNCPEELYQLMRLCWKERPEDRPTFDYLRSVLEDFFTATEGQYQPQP
Procedure: as §2

[4] = target: T1, PIM2 (Homo sapiens, UniProt Q9P1W9); experiment: Enzyme selectivity panel; format: biochemical; conditions: 1 mM ATP
T1 construct: purchased In-house HTRF panel (56 kinases) and PerkinElmer (161-kinase panel)
T1 sequence (Q9P1W9 whole entry, species assumed): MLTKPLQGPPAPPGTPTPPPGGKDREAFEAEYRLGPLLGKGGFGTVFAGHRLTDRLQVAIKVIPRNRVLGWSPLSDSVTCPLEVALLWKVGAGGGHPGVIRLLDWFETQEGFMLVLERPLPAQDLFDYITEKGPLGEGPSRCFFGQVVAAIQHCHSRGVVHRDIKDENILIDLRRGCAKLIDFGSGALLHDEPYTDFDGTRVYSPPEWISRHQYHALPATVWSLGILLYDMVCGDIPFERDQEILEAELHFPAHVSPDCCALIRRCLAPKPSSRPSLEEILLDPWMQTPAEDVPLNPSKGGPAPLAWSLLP
Procedure: as §2

[5] = target: RET (Homo sapiens, UniProt P07949); experiment: Enzyme selectivity panel; format: biochemical; conditions: 1 mM ATP
Procedure: as §2

[6] = target: ROCK1 (Homo sapiens, UniProt Q13464); experiment: Enzyme selectivity panel; format: biochemical; conditions: 1 mM ATP
Procedure: as §2

[7] = target: T2, SGK1 (Homo sapiens, UniProt O00141); experiment: Enzyme selectivity panel; format: biochemical; conditions: 1 mM ATP
T2 construct: purchased In-house HTRF panel (56 kinases) and PerkinElmer (161-kinase panel)
T2 sequence (O00141 whole entry, species assumed): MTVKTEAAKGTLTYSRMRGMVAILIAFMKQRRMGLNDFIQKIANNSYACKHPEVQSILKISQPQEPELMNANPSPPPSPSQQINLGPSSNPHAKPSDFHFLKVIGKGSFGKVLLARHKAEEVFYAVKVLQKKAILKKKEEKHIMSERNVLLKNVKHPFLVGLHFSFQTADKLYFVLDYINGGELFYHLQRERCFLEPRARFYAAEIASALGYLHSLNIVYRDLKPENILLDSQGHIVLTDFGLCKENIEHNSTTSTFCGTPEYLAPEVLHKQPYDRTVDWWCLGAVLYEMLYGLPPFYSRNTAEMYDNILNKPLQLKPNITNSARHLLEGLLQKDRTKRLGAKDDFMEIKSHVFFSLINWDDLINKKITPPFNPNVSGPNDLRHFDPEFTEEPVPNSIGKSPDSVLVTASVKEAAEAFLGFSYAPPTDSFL
Procedure: as §2

[8] = target: ZAP70 (Homo sapiens, UniProt P43403); experiment: Enzyme selectivity panel; format: biochemical; conditions: 1 mM ATP
Chain of ZAP70 (P43403 whole entry, species assumed): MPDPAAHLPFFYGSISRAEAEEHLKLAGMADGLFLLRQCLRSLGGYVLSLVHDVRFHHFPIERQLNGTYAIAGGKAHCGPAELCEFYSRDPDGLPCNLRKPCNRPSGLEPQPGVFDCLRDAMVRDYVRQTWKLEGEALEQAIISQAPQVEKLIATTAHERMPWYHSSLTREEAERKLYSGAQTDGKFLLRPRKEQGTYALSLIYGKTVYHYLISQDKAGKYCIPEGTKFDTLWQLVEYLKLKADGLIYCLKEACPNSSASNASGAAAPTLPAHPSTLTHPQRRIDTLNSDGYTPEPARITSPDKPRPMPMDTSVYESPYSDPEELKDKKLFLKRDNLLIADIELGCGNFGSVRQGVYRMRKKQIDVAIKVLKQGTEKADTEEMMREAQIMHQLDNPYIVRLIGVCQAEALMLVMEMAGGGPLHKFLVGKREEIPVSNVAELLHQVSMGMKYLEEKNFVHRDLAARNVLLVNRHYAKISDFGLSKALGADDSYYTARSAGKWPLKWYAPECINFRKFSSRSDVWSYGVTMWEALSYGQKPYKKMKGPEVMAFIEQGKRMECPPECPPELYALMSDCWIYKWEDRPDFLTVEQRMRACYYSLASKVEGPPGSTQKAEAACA
Procedure: as §2

[9] = tested on: b-FGF induced growth of human umbilical vein endothelial cells (HUVEC); experiment: HUVEC proliferation stimulated with b-FGF; format: cell-based; conditions: read-out: IC50 for b-FGF induced growth
[10] = tested on: H1581 (lung cancer); experiment: Cell viability assay (CellTiter-Glo); format: cell-based; conditions: Homo sapiens, NCI-H1581; FGFR1 amplification; 72 hours; read-out: Mean GI50 ± S.D.
[11] = tested on: RT-112 (bladder cancer); experiment: Cell viability assay (CellTiter-Glo); format: cell-based; conditions: Homo sapiens, FGFR3-TACC3 fusion, 72 hours, read-out: Mean GI50 ± S.D.
[12] = tested on: J82; experiment: Cell viability assay (CellTiter-Glo); format: cell-based; conditions: Homo sapiens, Bladder, lacking FGFR alterations
[13] = Plasma protein binding (equilibrium dialysis); format: in vitro ADME; conditions: read-out: PPB (% free)
Procedure: The final DMSO content in all cases was <0.1%. Each condition was incubated in duplicate. For protein binding determination, the Multi-Equilibrium Dialyzer System™ and diachema membranes from Harvard Apparatus (Holliston, MA) were utilized. Equilibrium dialysis was carried out in Teflon cells separated by a dialysis membrane with a molecular weight cutoff of 10,000 Daltons. […] The cells were rotated at a speed of 12 rpm in a 37°C water bath for 2 hours. Following the incubation period, buffer and serum/plasma samples were drained separately into empty preweighed glass test tubes. The tubes were reweighed, and the exact volume of sample recovered from each side of the dialysis cell was calculated using the mass. A 75-μL aliquot of each sample (buffer or serum/plasma) was added to a 96-well plate containing a protein precipitation solution of 100% methanol and 0.2 μM dextrorphan as the internal standard; 75 μL of blank buffer or plasma/serum was added to the plate to ensure identical composition across all samples. Prior to analysis, samples prepared in the 96-well plate were vigorously vortexed for approximately 5 minutes and centrifuged for 10 minutes at ~1700 × g to remove denatured proteins and particulate matter. The supernatant was transferred and analyzed using LC-MS/MS.

[14] = target: T3, CYP1A2 (Homo sapiens, UniProt P05177); experiment: CYP inhibition; format: in vitro ADME; conditions: human liver microsomes
T3 construct: from tissue; host or cells: human liver microsomes
Procedure: (§1) In addition, the known selective inhibitors of CYP1A2 (α-naphthoflavone), CYP2B6 (ticlopidine), CYP2C8 (quercetin), CYP2C9 (sulfaphenazole), CYP2C19 (tranylcypromine), CYP2D6 (quinidine), and CYP3A4 (ketoconazole) were included as positive controls. […] Samples were vortexed and centrifuged, and the resulting supernatants were analyzed using LC-MS/MS.

[15] = target: T4, CYP2B6 (Homo sapiens, UniProt P20813); experiment: CYP inhibition; format: in vitro ADME; conditions: human liver microsomes
T4 construct: from tissue; host or cells: human liver microsomes
T4 sequence (P20813 whole entry): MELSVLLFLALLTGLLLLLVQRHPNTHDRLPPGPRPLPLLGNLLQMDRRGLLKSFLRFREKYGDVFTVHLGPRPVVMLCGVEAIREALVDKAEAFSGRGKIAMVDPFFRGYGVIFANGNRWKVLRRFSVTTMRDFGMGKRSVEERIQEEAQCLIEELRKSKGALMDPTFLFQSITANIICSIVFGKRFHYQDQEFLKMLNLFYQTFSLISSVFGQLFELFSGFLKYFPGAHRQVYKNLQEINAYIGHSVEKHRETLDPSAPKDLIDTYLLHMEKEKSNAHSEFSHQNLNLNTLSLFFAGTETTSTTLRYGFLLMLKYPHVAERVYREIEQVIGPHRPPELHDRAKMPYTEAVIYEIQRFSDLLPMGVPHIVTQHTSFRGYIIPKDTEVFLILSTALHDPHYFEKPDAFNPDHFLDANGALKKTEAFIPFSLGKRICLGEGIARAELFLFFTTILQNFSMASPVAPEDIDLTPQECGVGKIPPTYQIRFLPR
Procedure: as §1

[16] = target: T5, CYP2C19 (Homo sapiens, UniProt P33261); experiment: CYP inhibition; format: in vitro ADME; conditions: human liver microsomes
T5 construct: from tissue; host or cells: human liver microsomes
T5 sequence (P33261 whole entry): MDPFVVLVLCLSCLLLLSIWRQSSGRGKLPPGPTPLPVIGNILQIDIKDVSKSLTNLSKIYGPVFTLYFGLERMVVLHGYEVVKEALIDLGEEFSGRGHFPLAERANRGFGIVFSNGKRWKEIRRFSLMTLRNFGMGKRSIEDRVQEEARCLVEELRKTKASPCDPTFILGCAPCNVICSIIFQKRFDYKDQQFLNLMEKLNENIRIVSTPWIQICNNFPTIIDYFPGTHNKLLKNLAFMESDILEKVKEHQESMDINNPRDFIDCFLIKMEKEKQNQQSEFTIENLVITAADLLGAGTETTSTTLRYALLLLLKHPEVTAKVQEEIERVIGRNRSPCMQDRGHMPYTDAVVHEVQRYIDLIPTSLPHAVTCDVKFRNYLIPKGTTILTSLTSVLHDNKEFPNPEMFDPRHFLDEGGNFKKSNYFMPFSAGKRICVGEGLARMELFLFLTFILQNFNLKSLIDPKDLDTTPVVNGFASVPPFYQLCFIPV
Procedure: as §1

[17] = target: T6, CYP2C8 (Homo sapiens, UniProt P10632); experiment: CYP inhibition; format: in vitro ADME; conditions: human liver microsomes
T6 construct: from tissue; host or cells: human liver microsomes
Procedure: as §1

[18] = target: T7, CYP2C9 (Homo sapiens, UniProt P11712); experiment: CYP inhibition; format: in vitro ADME; conditions: human liver microsomes
T7 construct: from tissue; host or cells: human liver microsomes
Procedure: as §1

[19] = target: T8, CYP2D6 (Homo sapiens, UniProt P10635); experiment: CYP inhibition; format: in vitro ADME; conditions: human liver microsomes
T8 construct: from tissue; host or cells: human liver microsomes
T8 sequence (P10635 whole entry): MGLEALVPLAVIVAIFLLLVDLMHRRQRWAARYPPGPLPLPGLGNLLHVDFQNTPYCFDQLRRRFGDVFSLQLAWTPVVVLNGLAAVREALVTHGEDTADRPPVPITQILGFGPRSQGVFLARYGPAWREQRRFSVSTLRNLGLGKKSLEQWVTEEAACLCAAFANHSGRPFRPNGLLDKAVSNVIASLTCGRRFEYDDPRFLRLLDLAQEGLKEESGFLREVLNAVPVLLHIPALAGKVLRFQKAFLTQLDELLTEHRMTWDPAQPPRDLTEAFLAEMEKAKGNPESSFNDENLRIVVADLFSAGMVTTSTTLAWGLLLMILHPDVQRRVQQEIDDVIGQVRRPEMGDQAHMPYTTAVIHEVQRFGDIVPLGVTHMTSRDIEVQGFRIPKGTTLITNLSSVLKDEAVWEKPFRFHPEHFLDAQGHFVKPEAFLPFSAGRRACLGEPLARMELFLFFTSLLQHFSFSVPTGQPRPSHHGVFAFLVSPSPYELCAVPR
Procedure: as §1

[20] = target: T9, CYP3A4 (Homo sapiens, UniProt P08684); experiment: CYP inhibition; format: in vitro ADME; conditions: human liver microsomes
T9 construct: from tissue; host or cells: human liver microsomes
T9 sequence (P08684 whole entry): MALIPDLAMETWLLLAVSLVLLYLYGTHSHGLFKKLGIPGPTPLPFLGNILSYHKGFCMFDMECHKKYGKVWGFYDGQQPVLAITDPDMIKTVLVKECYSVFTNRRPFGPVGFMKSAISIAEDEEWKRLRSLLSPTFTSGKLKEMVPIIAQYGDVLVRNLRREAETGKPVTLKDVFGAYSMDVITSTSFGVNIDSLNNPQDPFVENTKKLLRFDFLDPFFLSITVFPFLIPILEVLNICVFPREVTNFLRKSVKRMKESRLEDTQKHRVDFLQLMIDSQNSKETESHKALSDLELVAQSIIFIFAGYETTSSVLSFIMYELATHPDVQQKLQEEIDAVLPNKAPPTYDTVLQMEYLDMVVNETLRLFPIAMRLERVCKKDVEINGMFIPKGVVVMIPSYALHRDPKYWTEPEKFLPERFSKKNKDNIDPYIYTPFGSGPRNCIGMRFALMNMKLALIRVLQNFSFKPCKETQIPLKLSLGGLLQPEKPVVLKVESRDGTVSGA
Procedure: as §1

[21] = tested on: serum inorganic phosphate; experiment: Serum phosphate pharmacodynamic study; format: in vivo, C57BL/6 mice; conditions: single oral dose
Procedure: Female C57BL/6 mice, 5–8 weeks of age, were obtained from Charles River Laboratories. […] Twenty-four hours after dosing, mice were anesthetized under isoflurane. Approximately 200 μL of whole blood was collected by capillary retro-orbital sinus sampling into lithium heparin collection tubes (RAM Scientific, Yonkers, NY). Blood was maintained at 4°C and transported for analysis to DuPont Haskell Global Centers for Health and Environmental Science (Newark, DE). Each sample was analyzed for levels of inorganic phosphate within 4 hours of receipt. Serum clinical chemistry parameters were determined using an Olympus® AU640 clinical chemistry analyzer (Beckman Coulter, Brea, CA). Both phosphate and calcium are manufacturer-supplied reagents and methods.

[22] = Tolerability in xenograft studies; format: in vivo
[23] = tested on: xenografted tumor models; experiment: Combination with cisplatin in xenografted tumor models; format: in vivo; conditions: combination of INCB054828 with cisplatin
[24] = tested on: phospho-FGFR3 in RT-112 cells; conditions: proximity ligation assay
[25] = cited from earlier work

Chain of CHEK2 (O96017 whole entry, species assumed): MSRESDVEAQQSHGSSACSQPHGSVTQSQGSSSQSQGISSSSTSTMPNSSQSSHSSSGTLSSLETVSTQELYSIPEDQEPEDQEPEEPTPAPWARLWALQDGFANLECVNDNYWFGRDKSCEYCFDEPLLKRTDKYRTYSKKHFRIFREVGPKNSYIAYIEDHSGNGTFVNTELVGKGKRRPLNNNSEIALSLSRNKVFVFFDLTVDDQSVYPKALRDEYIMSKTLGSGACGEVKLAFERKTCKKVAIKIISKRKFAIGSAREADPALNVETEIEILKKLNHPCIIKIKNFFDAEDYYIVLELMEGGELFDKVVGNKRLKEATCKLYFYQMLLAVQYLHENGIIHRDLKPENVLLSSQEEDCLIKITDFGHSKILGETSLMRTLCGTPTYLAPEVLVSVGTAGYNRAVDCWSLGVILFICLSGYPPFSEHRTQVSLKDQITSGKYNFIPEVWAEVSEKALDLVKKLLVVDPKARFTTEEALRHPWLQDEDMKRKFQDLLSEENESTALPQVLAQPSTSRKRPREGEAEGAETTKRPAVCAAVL
Chain of CAMK2D (Q13557 whole entry, species assumed): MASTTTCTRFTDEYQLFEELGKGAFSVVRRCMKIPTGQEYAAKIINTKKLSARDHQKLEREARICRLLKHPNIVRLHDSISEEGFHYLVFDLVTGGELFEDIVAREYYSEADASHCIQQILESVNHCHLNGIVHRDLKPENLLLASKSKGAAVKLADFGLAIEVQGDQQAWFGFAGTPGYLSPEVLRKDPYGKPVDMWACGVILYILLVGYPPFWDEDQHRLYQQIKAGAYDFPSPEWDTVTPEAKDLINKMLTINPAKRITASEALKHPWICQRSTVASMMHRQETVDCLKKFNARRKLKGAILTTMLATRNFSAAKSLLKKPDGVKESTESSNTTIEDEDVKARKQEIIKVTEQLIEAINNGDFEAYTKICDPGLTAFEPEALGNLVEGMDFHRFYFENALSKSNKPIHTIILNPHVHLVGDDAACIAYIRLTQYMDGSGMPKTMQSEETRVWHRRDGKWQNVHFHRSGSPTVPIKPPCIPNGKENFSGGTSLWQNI

SMILES: CCN1C(=O)N(c2c(F)c(OC)cc(OC)c2F)Cc2cnc3[nH]c(CN4CCOCC4)cc3c21 [INCB054828, pemigatinib]
- IC50 [1]: > 10 µM
- IC50 [2]: > 10 µM
- IC50 [3]: > 10 µM
- IC50 [4]: > 10 µM
- IC50 [5]: > 10 µM
- IC50 [6]: > 10 µM
- IC50 [7]: > 10 µM
- IC50 [8]: > 10 µM
- IC50 [9]: 0.0082 µM
- GI50 [10]: 0.014 ± 0.009 µM
- GI50 [11]: 0.007 ± 0.003 µM
- GI50 [12]: > 5 µM
- fraction unbound at 2 h, 1 μM ([13]; Sprague Dawley, pH 7.4, rat plasma): 0.03
- fraction unbound at 2 h, 1 μM ([13]; pH 7.4, human plasma): 0.113
- IC50 [14]: > 25 µM
- IC50 [15]: > 25 µM
- IC50 [16]: > 25 µM
- IC50 [17]: > 25 µM
- IC50 [18]: > 25 µM
- IC50 [19]: > 25 µM
- IC50 [20]: > 25 µM
- average half maximal effective dose for phosphate induction ([21]; 2 independent experiments): 2.9 mg/kg
- serum phosphorus ([21]; 24 hours after dosing): dose-dependent increase
- overt toxicities ([22]; 0.3–1 mg/kg once daily, longer than 1 month): no overt toxicities were observed
- tolerability (body weight changes, clinical signs) ([22]; doses up to and including 1 mg/kg, up to 42 days): well tolerated
- benefit of combination with cisplatin over either single agent [23]: significant benefit over either single agent
- potent inhibition of FGFR3 (phospho-FGFR3), concentration [24]: < 10 nM
- safety profile in phase 1 clinical trials [25]: favorable safety profile
- pharmacokinetic data in patients ([25]; phase 1 dose-escalation study ref 33): low clearance and dose-linearity
